pEC50, pIC50: −log10 of the molar value. Values joined by “and” are separate entries in the source; they are usually repeats but may differ in a detail not shown here. Identical values can stand only once. Like-named read-outs stand apart in the source and are kept apart here.
Columns and labels:
[1] = target: SARS-CoV-2 Spike protein (Severe acute respiratory syndrome coronavirus 2, UniProt P0DTC2); test: Ternary binding of SARS-CoV-2 Spike protein (293T cells expressing Spike-GFP, IgG-AF647, flow cytometry); assay type: cell-based; conditions: 293T cells expressing Spike-GFP; IgG-AF647 10 μg/ml; repeat values/batches listed separately; read-out: SARS-CoV-2 Ternary binding EC50
[2] = target: T1, SARS-CoV-2 Spike A (wild-type) (Severe acute respiratory syndrome coronavirus 2, UniProt P0DTC2); test: MSD ACE2 competition assay (inhibition of Spike binding with ACE2, ECL), A (wild-type)
T1 construct: purchased Meso Scale Diagnostics, LLC V-PLEX SARS-CoV-2 Panel 13 (ACE2) Kit / Panel 23 (ACE2) Kit

SMILES: CC[C@H](C)[C@H](NC(=O)[C@H](CC(C)C)NC(=O)[C@H](CC(=O)O)NC(=O)[C@H](CO)NC(=O)[C@@H](NC(=O)[C@H](CCCNC(=N)N)NC(=O)[C@H](CCSC)NC(=O)[C@H](CO)NC(=O)[C@H](C)NC(=O)[C@H](CCC(=O)O)NC(=O)[C@H](C)NC(=O)[C@H](Cc1c[nH]cn1)NC(=O)CNC(=O)[C@H](CC(C)C)NC(=O)[C@H](CCC(=O)O)NC(=O)[C@H](CC(=O)O)NC(=O)[C@H](CC(C)C)NC(=O)[C@H](CC(C)C)NC(=O)[C@H](CCCNC(=N)N)NC(=O)[C@H](CCSC)NC(=O)[C@@H](NC(=O)[C@H](CCC(=O)O)NC(=O)[C@H](Cc1ccc(O)cc1)NC(=O)[C@@H](NC(=O)[C@H](CCCCN)NC(=O)[C@H](CCC(N)=O)NC(=O)[C@H](CC(C)C)NC(=O)[C@@H](NC(=O)[C@H](Cc1c[nH]c2ccccc12)NC(=O)[C@H](CCC(=O)O)NC(=O)[C@H](CCCCN)NC(=O)[C@H](CC(=O)O)NC(C)=O)[C@@H](C)CC)[C@@H](C)CC)[C@@H](C)CC)C(C)C)C(=O)N[C@@H](Cc1ccc(O)cc1)C(=O)N[C@@H](CCC(=O)O)C(=O)N[C@@H](Cc1ccccc1)C(=O)N[C@@H](CCSC)C(=O)N[C@@H](CCCCN)C(=O)N[C@@H](CCCCN)C(=O)NCC(=O)NCCOCCOCCOCCOCCOCCOCCOCCOCCC(=O)NCCOCCOCCOCCOCCOCCOCCOCCOCCC(=O)NCCOCCOCCOCCOCCOCCOCCOCCOCCC(=O)N[C@@H](CC(=O)O)C(=O)N[C@H]1CSSC[C@@H](C(=O)N[C@H](C(=O)O)[C@@H](C)O)NC(=O)[C@H](Cc2c[nH]c3ccccc23)NC(=O)[C@H](C(C)C)NC(=O)[C@H](CC(C)C)NC(=O)[C@H](CCC(=O)O)NC(=O)CNC(=O)[C@H](CC(C)C)NC(=O)[C@H](Cc2c[nH]cn2)NC(=O)[C@H](Cc2c[nH]c3ccccc23)NC(=O)[C@H](C)NC1=O [Compound 168]
- pEC50 [1]: 9.72
- pIC50 ([2]; read-out: IC50 Wild Type, Wild Type Spike): 8.49

SMILES: CC[C@H](C)[C@H](NC(=O)[C@H](CC(C)C)NC(=O)[C@H](CC(=O)O)NC(=O)[C@H](CO)NC(=O)[C@@H](NC(=O)[C@H](CCCNC(=N)N)NC(=O)[C@H](CCSC)NC(=O)[C@H](CO)NC(=O)[C@H](C)NC(=O)[C@H](CCC(=O)O)NC(=O)[C@H](C)NC(=O)[C@H](Cc1c[nH]cn1)NC(=O)CNC(=O)[C@H](CC(C)C)NC(=O)[C@H](CCC(=O)O)NC(=O)[C@H](CC(=O)O)NC(=O)[C@H](CC(C)C)NC(=O)[C@H](CC(C)C)NC(=O)[C@H](CCCNC(=N)N)NC(=O)[C@H](CCSC)NC(=O)[C@@H](NC(=O)[C@H](CCC(=O)O)NC(=O)[C@H](Cc1ccc(O)cc1)NC(=O)[C@@H](NC(=O)[C@H](CCCCN)NC(=O)[C@H](CCC(N)=O)NC(=O)[C@H](CC(C)C)NC(=O)[C@@H](NC(=O)[C@H](Cc1c[nH]c2ccccc12)NC(=O)[C@H](CCC(=O)O)NC(=O)[C@H](CCCCN)NC(=O)[C@H](CC(=O)O)NC(=O)[C@@H](NC(=O)[C@@H]1CSSC[C@H](NC(=O)[C@H](CC(=O)O)NC(C)=O)C(=O)N[C@@H](C)C(=O)N[C@@H](Cc2c[nH]c3ccccc23)C(=O)N[C@@H](Cc2c[nH]cn2)C(=O)N[C@@H](CC(C)C)C(=O)NCC(=O)N[C@@H](CCC(=O)O)C(=O)N[C@@H](CC(C)C)C(=O)N[C@@H](C(C)C)C(=O)N[C@@H](Cc2c[nH]c3ccccc23)C(=O)N1)[C@@H](C)O)[C@@H](C)CC)[C@@H](C)CC)[C@@H](C)CC)C(C)C)C(=O)N[C@@H](Cc1ccc(O)cc1)C(=O)N[C@@H](CCC(=O)O)C(=O)N[C@@H](Cc1ccccc1)C(=O)N[C@@H](CCSC)C(=O)N[C@@H](CCCCN)C(=O)N[C@@H](CCCCN)C(=O)O [Compound 121]
- pEC50 [1]: 9.08 and 9.11
- pIC50 ([2]; IC50 Wild Type, Wild Type Spike): 7.97
